Measurements reported in patent US11951131B2, “Anti-SLAMF7 chimeric antigen receptors” (The United States of America, as represented by the …, priority 2018, dated 2024).

System: SLAMF7^+ MM.1S cells
Assay: CD107a degranulation assay
Type: cell-based, human
Conditions: CD4^+ and CD8^+ T cells, cultured with MM.1S versus NGFR-K562, 4 hours
Method: For each T cell culture that was tested, two tubes were prepared. One tube contained MM.1S cells, and the other tube contained NGFR-K562 cells. Both tubes contained CAR-transduced T cells, 1 ml of AIM V™ medium (Invitrogen) plus 5% human AB serum, a titrated concentration of an anti-CD107a antibody (eBioscience, clone eBioH4A3, ThermoFisher Scientific), and 1 μL of GOLGISTOP™ (a protein transport inhibitor containing monensin, BD Biosciences). All tubes were incubated at 37° C. for 4 hours and then stained for CD3, CD4, and CD8.

Substance: Luc90-CD828Z: anti-SLAMF7 CAR (SEQ ID NO: 27): murine Luc90 scFv, human CD8a hinge and TM, CD28 and CD3ζ domains; tested as transduced T cells
- CD107a upregulation (degranulation): degranulated
